pEC50, pIC50: −log10 of the molar value.
Legend:
MDA-MB-468 = assay: Cancer cell growth inhibition, MDA-MB-468; type: cell-based; settings: Homo sapiens; Breast, MDA-MB-468, cell viability, 72 h
Procedure: (§1) Cell culture-based assays were used to evaluate the ability of compounds of the invention to inhibit cancer cell growth inhibition.
(§2) Cells were obtained from the American Type Culture Collection (ATCC) and European Collection of Cell Cultures (ECACC).
(§3) Cells were thawed in their appropriate media plus supplements (see table below). Cells were passaged at confluence by washing once in HBSS cation-free followed by a 3 minutes incubation with trypsin ([0.5 μg/ml]/EDTA [0.2 μg/ml]) (Gibco-BRL, 15400054) solution in HBSS at 37° C. (except non-adherent cell lines), and transferred to their appropriate media plus supplements. Prior to seeding at defined cell concentration, cells were recovered in medium, centrifuged and taken up in medium, and counted.
(§4) Cells were plated at 3000/5000/10000 cells/well in 100 μl media in tissue culture 96 well plates (Cultek). After 24 h, media was supplemented by 100 μl/well of diluted IPDNs at 100 μM.
(§5) The Hexosaminidase assay was used for the adherent cell lines, whereas the AlamarBlue® assay was used for the non-adherent cell lines.
(§6) Dose-response curves were generated by serial dilutions (1:1) of the compounds. […] Reagent blanks, containing media plus colorimetric reagent without cells were run on each plate. Blank values were subtracted from test values and were routinely 5-10% of uninhibited control values. Plates were incubated 72 h, and living cell number was determined by AlamarBlue® and Hexosaminidase test. The advantages of using those assays are that both can be done in the same microwell plate. AlamarBlue® assay: plates were incubated 72 h and living cell number was determined by AlamarBlue (Biosource DAL1100). After 4 h incubation at 37° C., relative fluorescent intensity, which correlates with the number of living cells, was read in a Cytofluor plate reader (Millipore) at 535/590 nm (Excitation/emission). The hexosaminidase activity was measured according to the following protocol: the media was removed and cells were washed once with PBS. […]

Panc-1 = assay: Cancer cell growth inhibition, Panc-1; type: cell-based; settings: Homo sapiens; Pancreatic, Panc-1, cell viability, 72 h
Procedure: as §1, §2, §3, §4, §5
(§7) Dose-response curves were generated by serial dilutions (1:1) of the compounds. […] Reagent blanks, containing media plus colorimetric reagent without cells were run on each plate. Blank values were subtracted from test values and were routinely 5-10% of uninhibited control values. Plates were incubated 72 h, and living cell number was determined by AlamarBlue® and Hexosaminidase test. The advantages of using those assays are that both can be done in the same microwell plate. AlamarBlue® assay: plates were incubated 72 h and living cell number was determined by AlamarBlue (Biosource DAL1100). After 4 h incubation at 37° C., relative fluorescent intensity, which correlates with the number of living cells, was read in a Cytofluor plate reader (Millipore) at 535/590 nm (Excitation/emission). The hexosaminidase activity was measured according to the following protocol: the media was removed and cells were washed once with PBS.
(§8) Data analysis was done by calculating the percentage of cell viability normalized in front of negative control values, which were considered as a 100%. The curve was adjusted using a sigmoidal dose-response (variable slope) equation and EC50 values were obtained from the equation
(§9) where, X is the logarithm of concentration. Y is the response. Bottom is the Y value at the bottom plateau Top is the Y value at the top plateau LogEC50 is the X value when the response is halfway between Bottom and Top. With different kinds of variables, this variable is sometimes called ED50 (effective dose, 50%), or IC50 (inhibitory concentration, 50%, used when the curve goes downhill).

SK-BR-3 = assay: Cancer cell growth inhibition, SK-BR-3; type: cell-based; settings: Homo sapiens; Breast, SK-BR-3, cell viability, 72 h
Procedure: as §1, §2, §3, §4, §5, §6

BT474 = assay: Cancer cell growth inhibition, BT474; type: cell-based; settings: Homo sapiens, BT-474; Breast, BT474, cell viability, 72 h
Procedure: as §1, §2
as §3, with “counted. […]” for “counted.”
(§10) Dose-response curves were generated by serial dilutions (1:1) of the compounds. […] Plates were incubated 72 h, and living cell number was determined by AlamarBlue® and Hexosaminidase test. […] AlamarBlue® assay: plates were incubated 72 h and living cell number was determined by AlamarBlue (Biosource DAL1100). After 4 h incubation at 37° C., relative fluorescent intensity, which correlates with the number of living cells, was read in a Cytofluor plate reader (Millipore) at 535/590 nm (Excitation/emission). The hexosaminidase activity was measured according to the following protocol: the media was removed and cells were washed once with PBS. […]

NCI-H1975 = assay: Cancer cell growth inhibition, NCI-H1975; type: cell-based; settings: Homo sapiens; Lung, NCI-H1975, cell viability, 72 h
Procedure: as §1, §2, §3, §4, §5, §7, §8, §9

RCC-7860 = assay: Cancer cell growth inhibition, RCC-7860; type: cell-based; settings: Renal, RCC-7860, cell viability, 72 h
Procedure: as §1, §2
as §3, with “counted. […]” for “counted.”
as §10

BxPC3 = assay: Cancer cell growth inhibition, BxPC3; type: cell-based; settings: Homo sapiens, BXPC-3; Pancreatic, BxPC3, cell viability, 72 h
Procedure: as §1, §2, §3, §4, §5, §6

Human DNMT1 = molecular target: T1, Human DNMT1 (Homo sapiens, UniProt P26358); assay: DNMT1 enzymatic activity inhibition, radioisotope-based 3H-SAM filter binding assay; type: biochemical; settings: 1 μM SAM, 25 nM DNMT1, 0.005 mg/ml Poly(dI-dC), 30° C. 1 hour, 10-dose
T1 construct: a-a 2-1632, with N-terminal GST tag; GST (N)
T1 sequence (P26358 2-1632 isoform P26358-2): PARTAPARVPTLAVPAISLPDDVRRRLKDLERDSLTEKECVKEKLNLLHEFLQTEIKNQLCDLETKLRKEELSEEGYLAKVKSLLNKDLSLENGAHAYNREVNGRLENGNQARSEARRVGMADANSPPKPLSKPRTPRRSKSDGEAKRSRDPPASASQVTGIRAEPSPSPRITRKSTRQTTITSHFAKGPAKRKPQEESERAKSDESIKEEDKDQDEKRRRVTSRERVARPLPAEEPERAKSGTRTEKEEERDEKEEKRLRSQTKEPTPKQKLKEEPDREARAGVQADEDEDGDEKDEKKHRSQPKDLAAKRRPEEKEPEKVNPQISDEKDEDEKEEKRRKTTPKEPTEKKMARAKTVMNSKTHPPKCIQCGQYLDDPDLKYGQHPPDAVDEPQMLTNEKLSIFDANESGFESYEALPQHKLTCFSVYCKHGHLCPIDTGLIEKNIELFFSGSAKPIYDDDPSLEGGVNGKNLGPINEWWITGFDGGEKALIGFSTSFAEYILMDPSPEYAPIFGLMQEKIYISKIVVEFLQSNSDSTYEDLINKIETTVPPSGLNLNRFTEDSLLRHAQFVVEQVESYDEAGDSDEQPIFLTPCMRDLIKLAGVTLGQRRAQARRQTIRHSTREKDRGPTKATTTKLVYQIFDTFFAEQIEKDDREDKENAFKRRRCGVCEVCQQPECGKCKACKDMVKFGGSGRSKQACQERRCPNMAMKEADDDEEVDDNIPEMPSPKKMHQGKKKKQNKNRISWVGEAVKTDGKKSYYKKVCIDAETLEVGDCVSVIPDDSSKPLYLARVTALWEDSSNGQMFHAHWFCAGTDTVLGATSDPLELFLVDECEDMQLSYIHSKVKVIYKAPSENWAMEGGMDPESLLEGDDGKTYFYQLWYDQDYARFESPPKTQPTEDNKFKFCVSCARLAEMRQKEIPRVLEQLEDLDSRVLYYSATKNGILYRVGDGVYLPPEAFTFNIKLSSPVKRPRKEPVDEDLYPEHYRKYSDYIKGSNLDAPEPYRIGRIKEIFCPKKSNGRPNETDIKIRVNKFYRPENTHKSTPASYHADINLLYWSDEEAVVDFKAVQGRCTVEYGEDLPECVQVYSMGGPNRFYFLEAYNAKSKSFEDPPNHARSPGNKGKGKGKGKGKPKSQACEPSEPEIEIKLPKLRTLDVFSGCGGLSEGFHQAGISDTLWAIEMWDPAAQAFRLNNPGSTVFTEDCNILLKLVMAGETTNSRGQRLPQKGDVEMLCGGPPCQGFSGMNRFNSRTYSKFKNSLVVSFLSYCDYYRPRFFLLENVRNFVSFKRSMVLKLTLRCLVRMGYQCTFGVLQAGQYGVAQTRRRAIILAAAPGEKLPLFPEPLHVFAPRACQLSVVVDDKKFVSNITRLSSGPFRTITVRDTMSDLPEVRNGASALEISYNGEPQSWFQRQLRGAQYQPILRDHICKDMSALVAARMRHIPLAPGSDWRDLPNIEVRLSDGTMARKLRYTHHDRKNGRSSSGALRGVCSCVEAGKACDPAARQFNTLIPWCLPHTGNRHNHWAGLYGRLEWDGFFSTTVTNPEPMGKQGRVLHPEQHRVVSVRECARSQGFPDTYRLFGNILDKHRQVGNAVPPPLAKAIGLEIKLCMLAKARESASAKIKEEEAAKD
Procedure: The inhibition of the enzymatic activity of DNMT1 was tested using low volume radioisotope-based assay which uses tritium-labeled AdoMet (^3H-SAM) as a methyl donor. Inhibitors diluted in DMSO were added by using acoustic technology (Echo550, Labcyte Inc. Sunnyvale, Calif.) into enzyme/substrate mixture in nano-liter range. The reaction was initiated by the addition of ^3H-SAM, and incubated at 30° C. for 1 hour. Total final methylations on the substrate poly(dI-dC) were detected by a filter binding approach. Data analysis was performed using GraphPad Prism software (La Jolla, Calif.) for IC50 curve fits.

SW-480 = assay: Cancer cell growth inhibition, SW-480; type: cell-based; settings: Homo sapiens, SW480; Colorectal, SW-480, cell viability, 72 h
Procedure: as §1, §2
as §3, with “counted. […]” for “counted.”
as §10

K562 = assay: Cancer cell growth inhibition, K562; type: cell-based; settings: Homo sapiens; Hematologic, K562, cell viability, 72 h
Procedure: as §1, §2, §3, §4, §5, §6

NCI-H358 = assay: Cancer cell growth inhibition, NCI-H358; type: cell-based; settings: Homo sapiens; Lung, NCI-H358, cell viability, 72 h
Procedure: as §1, §2, §3, §4, §5, §7, §8, §9

A-549 = assay: Cancer cell growth inhibition, A-549; type: cell-based; settings: Homo sapiens, A549; Lung, A-549, cell viability, 72 h
Procedure: as §1, §2, §3, §4, §5, §7, §8, §9

SK-HEP-1 = assay: Cancer cell growth inhibition, SK-HEP-1; type: cell-based; settings: Homo sapiens, SK-HEP1; Liver, SK-HEP-1, cell viability, 72 h
Procedure: as §1, §2, §3, §4, §5, §6

MDA-MB-231 = assay: Cancer cell growth inhibition, MDA-MB-231; type: cell-based; settings: Homo sapiens; Breast, MDA-MB-231, cell viability, 72 h
Procedure: as §1, §2
as §3, with “counted. […]” for “counted.”
as §10

MDA-MB-435 = assay: Cancer cell growth inhibition, MDA-MB-435; type: cell-based; settings: Homo sapiens; Melanoma, MDA-MB-435, cell viability, 72 h
Procedure: as §1, §2, §3, §4, §5, §7, §8, §9

U-373MG = assay: Cancer cell growth inhibition, U-373MG; type: cell-based; settings: Homo sapiens, U373 MG, Brain, cell viability, 72 h
Procedure: as §1, §2, §3, §4, §5, §6

LS174T = assay: Cancer cell growth inhibition, LS174T; type: cell-based; settings: Homo sapiens, Colorectal, cell viability, 72 h
Procedure: as §1, §2
as §3, with “counted. […]” for “counted.”
as §10

Row | pEC50 (MDA-MB-468) | pEC50 (Panc-1) | pEC50 (SK-BR-3) | pEC50 (BT474) | pEC50 (NCI-H1975) | pEC50 (RCC-7860) | pEC50 (BxPC3) | pIC50 (Human DNMT1) | pEC50 (SW-480) | pEC50 (K562) | pEC50 (NCI-H358) | pEC50 (A-549) | pEC50 (SK-HEP-1) | pEC50 (MDA-MB-231) | pEC50 (MDA-MB-435) | pEC50 (U-373MG) | pEC50 (LS174T) | SMILES
1 | 5.21 | 4.82 | 5.42 | 4.30 | 5.04 | 4.92 | 4.82 | 4.55 | 4.03 | 4.89 | 5.14 | 4.96 | 4.51 | 4.89 | 5.37 | 5.09 |  | COc1cc(OC)c2c(-c3ccc(O)cc3)cn(CC(=O)c3ccc(O)cc3)c2c1 [Example 6, 1-(4-hydroxyphenyl)-2-[3-(4-hydroxyphenyl)-4,6-dimethoxy-1H-indol-1-yl]ethanone]
2 | 4.13 |  | 4.23 |  |  |  | 4.47 | 4.65 |  | 4.29 | 4.64 | 4.41 | 4.46 |  | 4.24 |  | 4.06 | O=C(Cn1cc(-c2ccc(O)cc2)c2c(F)cc(F)cc21)c1ccc(O)cc1 [Example 16, 2-[4,6-difluoro-3-(4-hydroxyphenyl)-1H-indol-1-yl]-1-(4-hydroxyphenyl) ethanone]

From patent US20150336889A1, “INDOLE DERIVATIVES, PHARMACEUTICAL COMPOSITIONS CONTAINING SUCH INDOLES AND THEIR USE AS DNA METHYLATION MODULATORS” (IKERCHEM, S.L., priority 2012, published 2015)
